Reference: PubChem BioAssay (NCI)
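Test compounds were applied to cells in 96-well plates for 48 hours at 5 doses. GI50: concentration for 50% inhibition of growth. TGI: total growth inhibition.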

Columns and labels:
Test in all cases: inhibition of tumour cell growth, NCI panel, 48 h
SF-295 CNS = test system: SF-295 CNS
HOP-92 NSCLC = test system: HOP-92 NSCLC
MOLT-4 leukemia = test system: MOLT-4 leukemia
NCI-H522 lung = test system: NCI-H522 lung
SF-539 CNS = test system: SF-539 CNS
SK-MEL-5 melanoma = test system: SK-MEL-5 melanoma
HL-60(TB) leukemia = test system: HL-60(TB) leukemia
NCI/ADR-RES ovarian = test system: NCI/ADR-RES ovarian
ACHN renal = test system: ACHN renal
SK-MEL-2 melanoma = test system: SK-MEL-2 melanoma
HOP-62 NSCLC = test system: HOP-62 NSCLC
UACC-257 melanoma = test system: UACC-257 melanoma
RPMI-8226 leukemia = test system: RPMI-8226 leukemia
SK-MEL-28 melanoma = test system: SK-MEL-28 melanoma
786-0 renal = test system: 786-0 renal
MDA-MB-231 breast = test system: MDA-MB-231 breast
KM12 colon = test system: KM12 colon
MCF7 breast = test system: MCF7 breast
SW-620 colon = test system: SW-620 colon
LOX IMVI melanoma = test system: LOX IMVI melanoma
OVCAR-5 ovarian = test system: OVCAR-5 ovarian
HT29 colon = test system: HT29 colon
NCI-H226 lung = test system: NCI-H226 lung
HCC-2998 colon = test system: HCC-2998 colon
HCT-15 colon = test system: HCT-15 colon
COLO 205 colon = test system: COLO 205 colon
SK-OV-3 ovarian = test system: SK-OV-3 ovarian
SNB-75 CNS = test system: SNB-75 CNS
PC-3 prostate = test system: PC-3 prostate
OVCAR-8 ovarian = test system: OVCAR-8 ovarian
A549 NSCLC = test system: A549 NSCLC
IGROV1 ovarian = test system: IGROV1 ovarian
OVCAR-3 ovarian = test system: OVCAR-3 ovarian
SNB-19 CNS = test system: SNB-19 CNS
UACC-62 melanoma = test system: UACC-62 melanoma
HCT-116 colon = test system: HCT-116 colon
OVCAR-4 ovarian = test system: OVCAR-4 ovarian
CCRF-CEM leukemia = test system: CCRF-CEM leukemia
EKVX NSCLC = test system: EKVX NSCLC
NCI-H460 lung = test system: NCI-H460 lung
RXF 393 renal = test system: RXF 393 renal
CAKI-1 renal = test system: CAKI-1 renal
SF-268 CNS = test system: SF-268 CNS
MALME-3M melanoma = test system: MALME-3M melanoma
MDA-MB-435 = test system: MDA-MB-435
K-562 leukemia = test system: K-562 leukemia
SN12C renal = test system: SN12C renal
TK-10 renal = test system: TK-10 renal
HS 578T breast = test system: HS 578T breast
T-47D breast = test system: T-47D breast
BT-549 breast = test system: BT-549 breast
NCI-H23 lung = test system: NCI-H23 lung
A498 renal = test system: A498 renal
M14 melanoma = test system: M14 melanoma
UO-31 renal = test system: UO-31 renal
U251 CNS = test system: U251 CNS
DU-145 prostate = test system: DU-145 prostate

Cc1cc(O)cc2c1[C@]1(C)CCC3C(C)(C)CCC[C@]3(C)[C@H]1C2 (some centres undefined)
GI50 (SF-295 CNS): 20.3 µM | TGI (SF-295 CNS): 36 µM | GI50 (HOP-92 NSCLC): 18.4 µM | TGI (HOP-92 NSCLC): 35.3 µM | GI50 (MOLT-4 leukemia): 28.1 µM | TGI (MOLT-4 leukemia): 98.6 µM | GI50 (NCI-H522 lung): 20.8 µM | TGI (NCI-H522 lung): 38.9 µM | GI50 (SF-539 CNS): 20.6 µM | TGI (SF-539 CNS): 37.9 µM | GI50 (SK-MEL-5 melanoma): 19.1 µM | TGI (SK-MEL-5 melanoma): 33.2 µM | GI50 (HL-60(TB) leukemia): 32.4 µM | TGI (HL-60(TB) leukemia): > 100 µM | GI50 (NCI/ADR-RES ovarian): 21.4 µM | TGI (NCI/ADR-RES ovarian): 39.8 µM | GI50 (ACHN renal): 19.1 µM | TGI (ACHN renal): 33.3 µM | GI50 (SK-MEL-2 melanoma): 26.2 µM | TGI (SK-MEL-2 melanoma): 52.7 µM | GI50 (HOP-62 NSCLC): 20.6 µM | TGI (HOP-62 NSCLC): 35.5 µM | GI50 (UACC-257 melanoma): 23.6 µM | TGI (UACC-257 melanoma): 41.3 µM | GI50 (RPMI-8226 leukemia): 29.6 µM | TGI (RPMI-8226 leukemia): 74.7 µM | GI50 (SK-MEL-28 melanoma): 20.4 µM | TGI (SK-MEL-28 melanoma): 36.7 µM | GI50 (786-0 renal): 19.4 µM | TGI (786-0 renal): 34.3 µM | GI50 (MDA-MB-231 breast): 22 µM | TGI (MDA-MB-231 breast): 38.5 µM | GI50 (KM12 colon): 20 µM | TGI (KM12 colon): 35.3 µM | GI50 (MCF7 breast): 18.6 µM | TGI (MCF7 breast): 33.3 µM | GI50 (SW-620 colon): 18.5 µM | TGI (SW-620 colon): 33.6 µM | GI50 (LOX IMVI melanoma): 19.5 µM | TGI (LOX IMVI melanoma): 35.8 µM | GI50 (OVCAR-5 ovarian): 21.4 µM | TGI (OVCAR-5 ovarian): 37.2 µM | GI50 (HT29 colon): 18.5 µM | TGI (HT29 colon): 35.5 µM | GI50 (NCI-H226 lung): 22.4 µM | TGI (NCI-H226 lung): 41.4 µM | GI50 (HCC-2998 colon): 22.1 µM | TGI (HCC-2998 colon): 38 µM | GI50 (HCT-15 colon): 19.9 µM | TGI (HCT-15 colon): 38.1 µM | GI50 (COLO 205 colon): 18.8 µM | TGI (COLO 205 colon): 34 µM | GI50 (SK-OV-3 ovarian): 21.9 µM | TGI (SK-OV-3 ovarian): 38.6 µM | GI50 (SNB-75 CNS): 17.9 µM | TGI (SNB-75 CNS): 34.2 µM | GI50 (PC-3 prostate): 24.7 µM | TGI (PC-3 prostate): 65.1 µM | GI50 (OVCAR-8 ovarian): 26.1 µM | TGI (OVCAR-8 ovarian): 54.8 µM | GI50 (A549 NSCLC): 22.7 µM | TGI (A549 NSCLC): 42.1 µM | GI50 (IGROV1 ovarian): 20.5 µM | TGI (IGROV1 ovarian): 36.9 µM | GI50 (OVCAR-3 ovarian): 19.2 µM | TGI (OVCAR-3 ovarian): 33.5 µM | GI50 (SNB-19 CNS): 20.8 µM | TGI (SNB-19 CNS): 35.7 µM | GI50 (UACC-62 melanoma): 18.6 µM | TGI (UACC-62 melanoma): 33.2 µM | GI50 (HCT-116 colon): 19 µM | TGI (HCT-116 colon): 33 µM | GI50 (OVCAR-4 ovarian): 17.5 µM | TGI (OVCAR-4 ovarian): 33.8 µM | GI50 (CCRF-CEM leukemia): 29.6 µM | TGI (CCRF-CEM leukemia): 92 µM | GI50 (EKVX NSCLC): 19.9 µM | TGI (EKVX NSCLC): 36.6 µM | GI50 (NCI-H460 lung): 20.6 µM | TGI (NCI-H460 lung): 37.1 µM | GI50 (RXF 393 renal): 25 µM | TGI (RXF 393 renal): 50.4 µM | GI50 (CAKI-1 renal): 18.1 µM | TGI (CAKI-1 renal): 31.9 µM | GI50 (SF-268 CNS): 21 µM | TGI (SF-268 CNS): 39.4 µM | GI50 (MALME-3M melanoma): 23.2 µM | TGI (MALME-3M melanoma): 39.4 µM | GI50 (MDA-MB-435): 18.8 µM | TGI (MDA-MB-435): 33.4 µM | GI50 (K-562 leukemia): 67.4 µM | TGI (K-562 leukemia): > 100 µM | GI50 (SN12C renal): 17.2 µM | TGI (SN12C renal): 32.3 µM | GI50 (TK-10 renal): 18.7 µM | TGI (TK-10 renal): 36.4 µM | GI50 (HS 578T breast): 22.6 µM | TGI (HS 578T breast): 44.6 µM | GI50 (T-47D breast): 16.7 µM | TGI (T-47D breast): 43.3 µM | GI50 (BT-549 breast): 21.6 µM | TGI (BT-549 breast): 38.6 µM | GI50 (NCI-H23 lung): 22.5 µM | TGI (NCI-H23 lung): 42 µM | GI50 (A498 renal): 23.2 µM | TGI (A498 renal): 39.1 µM | GI50 (M14 melanoma): 21.6 µM | TGI (M14 melanoma): 37.6 µM | GI50 (UO-31 renal): 20.5 µM | TGI (UO-31 renal): 36.4 µM | GI50 (U251 CNS): 19.2 µM | TGI (U251 CNS): 33.5 µM | GI50 (DU-145 prostate): 19.1 µM | TGI (DU-145 prostate): 35 µM
